# Source: patent US20230190687A1, “SODIUM BUTYRATE FOR USE IN THE PREVENTION OR TREATMENT OF RHINOVIRUS INFECTION” (priority 2020, published 2023)
# Assays:
# HRV1B Rhinovirus = assay: Conditioned media of treated THP-1 macrophages incubated with HRV1B Rhinovirus; measurable live virus titrated; type: cell-based; conditions: then incubated with HRV1B, compared with control (distilled water), n=3
# Procedure: With reference to FIG. 1, an experiment was carried out to treat leukocytes (the human monocytic THP-1 macrophage cell line differentiated into macrophages) with sodium butyrate, Vitamin D, or with a combination of sodium butyrate and Vitamin D.
# The leukocyte cells were incubated for a period of time to allow them to release proteins into the surrounding cell culture media (referred to as ‘conditioned media’). The conditioned media was then incubated with HRV1B Rhinovirus. The leukocyte cells were incubated with a solution comprising 0.5 mM sodium butyrate, a solution comprising 0.5 mM Vitamin D, and with a solution comprising both 0.5 mM sodium butyrate and 0.5 mM Vitamin D.
# The data shown is an average of n=3 independent biological replicates (the titration is an average of ten fold reductions quantified over the three replicates).
# influenza infection = conditions: exogenous LL-37, mouse models of influenza infection; Barlow et al 2011; cited from earlier work
# Rhinovirus = conditions: exogenous LL-37, cell models; Casanova et al 2020; cited from earlier work
molecule,measurement,setting,value
CCCC(=O)[O-].[Na+] [sodium butyrate],reduction in measurable live virus,HRV1B Rhinovirus; conditioned media of THP-1 macrophages incubated with 0.5 mM sodium butyrate,75-80%
"LL-37: a human member of the cathelicidin family (LLGDFFRKSKEKIGKEFKRIVQRIKDFLRNLVPRTES; Antibacterial peptide LL-37; UniProt P49913 134-170, looked up)",inflammation,influenza infection,decrease inflammation
same,survival rates,influenza infection,enhanced survival rates
same,Rhinovirus induced inflammatory cytokine release,Rhinovirus,reduce Rhinovirus induced inflammatory cytokine release
Vitamin D,reduction in measureable live virus (in words),"HRV1B Rhinovirus; conditioned media of THP-1 macrophages incubated with 0.5 mM Vitamin D, or 0.5 mM sodium butyrate and 0.5 mM Vitamin D",significant reduction
